# Measurements: patent US9789200B2, “Therapeutic use of new pharmaceutical preparations containing antitumoral drugs bound to hyaluronic acid in the treatment of neoplasias” (FIDIA FARMACEUTICI S.P.A., priority 2008, dated 2017)
# Key:
# [1] = system: DHD/K12/Trb peritoneal carcinomatosis; assay: anti-tumoral effect in vivo, peritoneal carcinomatosis and tumoral ascites induced by DHD/K12/Trb in BDIX rats; design: species or system rat; conditions: 40 mg/kg intraperitoneally
# Description: Animals treated: 36 male rats BDIX 7 weeks' old (about 200 g) were divided according to experimental criteria into the following groups (each group consists of 12 animals):
# 1. Control Group: inoculum DHD/K12/trb.
# 2. CPT-11 Group: inoculum DHD/K12/trb+treatment CTP-11 40 mg/Kg intraperitoneally.
# After 14 days of stabling, 1×10^6 DHD/K12/trb cells per rat were inoculated intraperitoneally. After 7 days the therapeutic treatment envisaged was initiated, consisting of 4 therapy cycles. The sacrifice of the animals was established 7 days after the last pharmacological treatment. The animals were evaluated once a week for the appearance of possible signs of toxicity, by measuring the body weight, and for the possible appearance of ascites. At the moment of sacrifice an intracardiac sampling was effected in all the animals and the haematological toxicity due to the pharmacological treatment was evaluated. The tumours and ascites were removed and measured. The tissues removed were fixed in formalin for histological and immunohistochemical evaluation.
# [2] = system: Adenocarcinoma cells of the colon of a rat DHD/K12/Trb; assay: cell vitality, Tripan blue exclusion method; assay type: cell-based; conditions: 24 h of treatment, ONCOFID-S derivatized at 3.5% w/w (Example 2)
# From the text: Adenocarcinoma cells of the colon of a rat DHD/K12/Trb expressing the receptor for HA CD44
# Adenocarcinoma cells of the colon of a rat DHD/K12/Trb.
# [3] = system: Adenocarcinoma cells of the colon of a rat DHD/K12/Trb; assay: cytofluorometric analysis of cell phases (DNA content, propidium iodide) and wash out test; assay type: cell-based; conditions: 0.5 μg/ml, 24 h of treatment; ONCOFID-S 3.5% w/w
# Description: Adenocarcinoma cells of the colon of a rat DHD/K12/Trb
# As described for examples 8 and 9.
# The effect of the ONCOFID-S conjugate (at a concentration of 0.5 μg/ml) was determined using an analysis of the cytofluorometric type; after 24 h of pharmacological treatment, the cell phases are identified with FACS-Scan (Becton Dickinson) by cytofluorometric, analysis of the DNA content after colouring the cells with propidium iodide.
# In order to evaluate whether the data obtained persist with time, the Wash out test was effected in which, after 48 h of treatment, the culture medium is substituted with fresh medium without treatment: the cell phases were then defined again at the point defined as TO and, after 24 h of culture, T24.
# DHD/Trb cells = assay: fluorescence microscopy of intracellular distribution/expression of E-cadherin, β-catenin, APC, GSK-3β and CK20; assay type: cell-based, rat; conditions: non-conjugated SN38
# From the text: Due to the importance of the role of regulating the β-catenin in the formation and progression of colon-rectal carcinomas, it was verified whether the treatment with Oncofid-S is capable of modifying the intracellular expression and distribution of the molecules involved in the control process of the above protein, as previously described. The effect of the treatment with ONCOFID-S on the intracellular distribution of E-cadherin, β-catenin, APC e GSK-3β in the DHD/Trb cells was therefore analyzed by means of fluorescence microscopy. Specific antibodies were used for the above proteins, visualizing them with the use of secondary antibodies bound to fluorochromes such as rodamin and fluoroescein.
smiles,measurement,setting,value
"CCc1c2c(nc3ccc(OC(=O)N4CCC(N5CCCCC5)CC4)cc13)-c1cc3c(c(=O)n1C2)COC(=O)[C@]3(O)CC [CPT-11, Irinotecan]",animals with bloody ascites,[1],83%
same,average reduction in the tumoral mass,[1]; vs control,62%
CCc1c2c(nc3ccc(O)cc13)-c1cc3c(c(=O)n1C2)COC(=O)[C@]3(O)CC [SN38],IC50,[2],1.4 µg/mL
same,gap1 and S phases of the cell cycle,[3],increases both the first phase and the S phase
same,"modifications relating to cell differentiation (APC/GSK-3β, β-catenin, E-cadherin, CK20)",DHD/Trb cells,not revealed
